From patent US8476035B2, “Agent that modulates physiological condition of pests, involved in insect choline acetyltransferase activity” (Sumitomo Chemical Company, Limited, priority 2007, dated 2013)
pIC50: −log10 of the molar value. Where two headings read alike, the source gives them in different places.

Experiments:
[1] = target: cotton aphid choline acetyltransferase (Aphis gossypii, UniProt A0A9P0JF82); assay: Inhibition of cotton aphid choline acetyltransferase activity (DTNB colorimetric in vitro assay); assay type: biochemical; conditions: for inhibition at 10 µM: test compound in DMSO at final concentration 10 μM, relative to DMSO control, read-out: Activity of inhibiting choline acetyltransferase activity (inhibition degree (%) at 10 μM addition)
Experimental: Selection of a compound which modulates a choline acetyltransferase activity was performed in a system for measuring and evaluating the choline acetyltransferase activity, the activity being modulated by adding a test compound to an in vitro reaction system using the cotton aphid choline acetyltransferase prepared in Example 7.
As for a measurement of the cotton aphid choline acetyltransferase activity, after the enzymatic reaction of choline acetyltransferase using acetyl-CoA and choline as substrates, free CoA formed by choline acetyltransferase reaction was measured using 5,5′-dithio-bis(2-nitrobenzoic acid) (DTNB) reagent. DTNB reacts with free thiol groups in solution to produce 5-thio-2-nitrobenzoic acid (TNB). TNB is yellow and has absorption maximum at 412 nm. The produced TNB was measured […] to calculate choline acetyltransferase activity.
For measuring the activity, the activity of the aphid choline acetyltransferase was measured when a test compound dissolved in DMSO was contained to a final concentration of 10 μM. In addition, the activity of the aphid choline acetyltransferase was measured when DMSO was contained in place of a test compound. Then, a ratio (%) of a measured value of the activity of the aphid choline acetyltransferase when a test compound dissolved in DMSO was contained, relative to a measured value of the activity of aphid choline acetyltransferase when DMSO was contained in place of the test compound was calculated, and a value obtained by subtracting the calculated value from 100% was adopted as an inhibition degree (%). The results in each test compound are shown in Table 4 in Example 9 together with results of Example 9.
The activity of aphid choline acetyltransferase was measured when a test compound dissolved in DMSO was contained to a final concentration of each concentration of 100 μM, 30 μM, 10 μM, 3 μM, 1 μM, 0.3 μM, 0.1 μM or 0.03 μM. IC50 (μM) was calculated from the result of each concentration at each test compound using a concentration-dependent test analyzing software XL fit (manufactured by idbs). The results are shown in Table 5 in Example 10 together with results of Example 9.

Aphis gossypii = assay: Pesticidal activity test (artificial feed rearing of Aphis gossypii); assay type: in vivo; conditions: 50 ppm test compound in artificial feed; surviving Aphis gossypii counted after six days; significant controlling value (e.g. 30% or more) = pesticidal activity
[2] = recombinant cotton aphid enzyme
[3] = concentrations 0.03-100 μM, XLfit, recombinant cotton aphid enzyme, read-out: Activity of inhibiting choline acetyltransferase activity (IC50)

Sequence of cotton aphid choline acetyltransferase (A0A9P0JF82 entry or part of it): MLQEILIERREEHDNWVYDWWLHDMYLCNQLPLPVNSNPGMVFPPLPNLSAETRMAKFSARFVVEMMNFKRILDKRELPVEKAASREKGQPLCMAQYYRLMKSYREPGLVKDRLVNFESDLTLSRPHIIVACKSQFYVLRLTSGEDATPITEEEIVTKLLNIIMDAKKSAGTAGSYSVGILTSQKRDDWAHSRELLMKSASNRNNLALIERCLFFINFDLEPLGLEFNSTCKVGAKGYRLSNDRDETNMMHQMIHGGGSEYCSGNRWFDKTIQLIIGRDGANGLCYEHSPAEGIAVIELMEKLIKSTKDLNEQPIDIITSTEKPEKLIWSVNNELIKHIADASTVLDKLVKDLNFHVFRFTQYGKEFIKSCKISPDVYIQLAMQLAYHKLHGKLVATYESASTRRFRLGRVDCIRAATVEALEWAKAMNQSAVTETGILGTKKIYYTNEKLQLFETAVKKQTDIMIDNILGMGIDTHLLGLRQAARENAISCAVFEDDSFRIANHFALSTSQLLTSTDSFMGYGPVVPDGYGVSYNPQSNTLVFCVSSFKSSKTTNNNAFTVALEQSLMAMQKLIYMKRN

Structure (SMILES) | pIC50 [1] | inhibition at 10 µM [1, 2] [%] | Result of Example 9: Determination result of pesticidal activity (Aphis gossypii) | pIC50 [1, 3]
CN(C)CCC(=O)c1cccc2ccccc12.Cl [α-NEDA, 2-(α-naphthoyl)ethyl-dimethylammonium chloride] | 4.47 | – | – | –
C[N+](C)(C)CCC(=O)c1cccc2ccccc12.[I-] [α-NETA, 2-(α-naphthoyl)ethyl-trimethylammonium iodide] | 5.82 | – | – | –
O/N=C(\CBr)c1ccccc1 [DD05314] | – | 50 | Presence of pesticidal | –
CN(C)CCC(c1ccc(Cl)cc1)c1ccccn1.O=C(O)/C=C\C(=O)O (racemic) [DL-Chlorpheniramine Maleate] | – | – | – | < 4.00
ICC1CSc2nncn21 (stereo not drawn) [DD03493] | – | 49 | Presence of pesticidal | 4.62
COc1cc(N)c(Cl)cc1C(=O)NC1CCN(CCCOc2ccc(F)cc2)CC1OC (stereo not drawn) [Cisapride] | – | – | – | < 4.00
